In patent US20220193068A1, “A GRK2 PROTEIN INHIBITOR COMPOUND AND A PHARMACEUTICAL COMPOSITION COMPRISING THE SAME” (CONSEJO NACIONAL DE INVESTIGACIONES CIENTÍFICAS Y TÉCNICAS …, priority 2019, published 2022):

Assays:
[1] = tested on: GRK2K220R/R106A (mutated RGS domain); test: Selectivity control: cAMP response of rH2 in HEK293 clones overexpressing rH2 and GRK2K220R/R106A; assay type: cell-based; conditions: 10 μM amthamine, no significant differences
Protocol: In order to assess specificity of the effect of compounds over RGS domain of GRK2, assays were carried out in a second system that overexpresses rH2 and GRK2K220R/R106A, a GRK2 double mutant negative dominant construct that lacks both kinase activity and desensitization action through RGS domain. […] The R106A mutation that inactivates the RGS domain is redundant to the effect of an inhibitory potential, thus constituting the selectivity control of the model and allowing to determine if the enhancement in the receiver response occurred as a result of an inhibition of the RGS domain, or if it was the result of a non-specific action of the compound on an unwanted target. Those compounds that also raise cAMP levels in this control system are considered to be of non-specific action.
Since the latter mutation is redundant to the effect of a potential inhibitor of RGS domain of GRK2, this system allows us to discern whether the enhancement in the rH2 response occurred as a result of an RGS domain inhibition, or whether it resulted from a non-specific action of the compound on an unwanted target.

[2] = target: T1, RGS domain of GRK2 (GRK2-K220R variant) (Bos taurus, UniProt P21146, K220R); test: cAMP response of rH2 to amthamine in HEK293 clones overexpressing rH2 and GRK2-K220R; assay type: cell-based; conditions: 40 min pretreatment, C2-C5 at 10 μM or 100 μM, L96B at 100 nM or 1 μM, 10 μM amthamine, *p<0.05
T1 construct: expressed in transfected cells
T1 sequence (P21146 1-689 K220R): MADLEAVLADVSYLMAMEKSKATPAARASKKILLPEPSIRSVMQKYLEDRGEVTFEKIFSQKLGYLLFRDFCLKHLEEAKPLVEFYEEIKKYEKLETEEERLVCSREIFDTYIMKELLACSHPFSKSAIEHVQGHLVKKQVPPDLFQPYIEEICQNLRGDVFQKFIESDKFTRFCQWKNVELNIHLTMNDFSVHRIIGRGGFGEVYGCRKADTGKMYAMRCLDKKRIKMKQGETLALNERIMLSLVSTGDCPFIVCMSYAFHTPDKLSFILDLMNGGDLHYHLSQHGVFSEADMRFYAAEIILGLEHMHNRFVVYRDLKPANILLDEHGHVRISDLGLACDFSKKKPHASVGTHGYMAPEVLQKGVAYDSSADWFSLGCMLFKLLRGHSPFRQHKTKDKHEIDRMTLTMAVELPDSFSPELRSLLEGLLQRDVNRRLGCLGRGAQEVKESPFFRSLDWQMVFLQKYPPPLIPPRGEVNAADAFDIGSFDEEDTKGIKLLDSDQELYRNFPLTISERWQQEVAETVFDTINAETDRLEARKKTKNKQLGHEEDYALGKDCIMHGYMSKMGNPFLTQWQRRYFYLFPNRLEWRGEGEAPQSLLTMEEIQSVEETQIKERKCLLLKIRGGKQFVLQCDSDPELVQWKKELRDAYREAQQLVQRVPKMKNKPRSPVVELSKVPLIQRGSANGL
Source text: In order to assess the effect of inhibitors of the RGS domain of GRK2, a cell model derived from HEK293 transfected cells was obtained. Such cells overexpress the histamine H2 receptor (rH2), a G-protein coupled receptor (GPCR) of the Gs type that, when activated, promotes cAMP synthesis and which is inactivated by regulatory domain-mediated desensitization of G-protein stimulation (RGS) of GRK2. The clone obtained not only overexpresses rH2 but also overexpresses a negative dominant mutant of GRK2, the GRK2-K220R variant, which cannot phosphorylate GPCRs but can inactivate them through its RGS domain. In this system, the desensitizing effect of the RGS domain of GRK2 on the cAMP response of rH2 is evident.
Clones derived from HEK293 cells were obtained by stable and sequential transfection with pcDNA3.1Zeo(+)-HARH2 and pcDNA3-GRK2K22OR plasmids using K2 Transfection System (BIONTEX) reactive, following manufacturer's instructions and using, for a 35 mm diameter plate, a mixture A of 2.7 μg of total DNA and 150 μl of DMEM base and a mixture B of 6 μl of K2 transfection reactive and 150 μl of base DMEM. The following day, cells were plated in 96-well plates with 0.3 ml of complete DMEM per well. For clone selection, cells were incubated in selection agent-supplemented medium (50 μg/ml Zeocine or 1.2 mg/ml geneticin), following a limit dilution protocol. According to this protocol, cells were counted and plated performing serial dilutions, so as to obtain wells with con 1000, 100, 10 and 1 cell. The medium was renewed every other day by replacing 100 μl in each well with 100 μl of fresh medium of the same composition. After three weeks, several antibiotic-resistant clones were selected and afterwards plasmid expression was analyzed by Western blot.
Adhered clones were maintained in a humidified-atmosphere oven, with 5% CO2 at 37° C., in 10% FBS-supplemented DMEM medium, 50 μg/ml gentamicin, 0.8 mg/ml geneticin and 50 μg/ml zeocin. Cells were passed by adding 0.05% trypsin solution and 0.3 mM EDTA.
In order to assess the effect of GRK2 inhibitor compounds, clones were plated in 48-well plates at 50% confluence. […]
Next, cells were incubated for 3 min with 1 mM IBMX, a phosphodiesterase inhibitor that prevents degradation of the cAMP produced and afterwards the rH2-Gαs-adenylate-cyclase-cAMP signaling route was stimulated for 9 minutes with the rH2-specific agonist, amthamine, at a 10 μM concentration. […] This was evaporated and cAMP levels were determined.
cAMP in samples was quantified by adapting the linking protein-binding technique according to Davio et al, 1995.

[3] = tested on: HEPG2 cell line; test: Viability of human hepatocyte HEPG2 cells, trypan blue exclusion; conditions: 48 hours, 0.33 μM to 200 μM, versus DMSO control, C2 effect as from 10 μM
Protocol: (§1) Since hepatotoxicity is one of the main forms of toxicity in which drugs affect the body, the cytotoxicity of inhibitors was assessed using the human hepatocyte HEPG2 cell line.
(§2) Cells were plated in a 96-well plate at a 22,000 cell/well density and incubated for 48 hours with the compounds in a concentration range of between 0.33 μM and 200 μM. Afterwards, their viability was analyzed through trypan blue exclusion method and counted in Neubauer camera.

[4] = tested on: HEPG2 cell line
Protocol: as §1, §2

Row | effect on H2 receptor capacity of response (cAMP) [2] | melting point | EC50 [4] | Compound | effect over rH2 capacity of response (cAMP) with GRK2 mutated in the RGS domain [1] | cytotoxicity / cell viability [3]
1 | enhancing effect | – | – | O=C(CCc1ccc2ccccc2c1)N1CCCC(n2cccn2)C1 (centres unmarked) [C4, 3-(naphtalen-2-yl)-1-[3-(1H-pyrazol-1-yl)piperidin-1-yl]propan-1-one] | lack of effect | –
2 | – | 202 °C | – | O=C(Nc1ccc(-c2nnco2)cc1)c1cnc2ccccc2c1 [L94C, N-[4-(1,3,4-oxadiazol-2-yl)phenyl]quinoline-3-carboxamide] | – | –
3 | enhancing effect | – | – | Cc1ccc2cc(C(=O)Nc3cccc(-c4nnco4)c3)c(C)nc2c1 [C3, 2,7-dimethyl-N-[3-(1,3,4-oxadiazol-2-yl)phenyl] quinoline-3-carboxamide] | lack of effect | –

The next lines start with the compound.

Row | Compound | effect on H2 receptor capacity of response (cAMP) [2] | melting point | EC50 [4] | effect over rH2 capacity of response (cAMP) with GRK2 mutated in the RGS domain [1] | cytotoxicity / cell viability [3]
4 | O=C(Cc1n[nH]c(=O)c2ccccc12)Nc1cccc2ncccc12 [C5, 2-(4-oxo-3,4-dihydrophthalazin-1-yl)-N-(quinoline-5-yl)acetamide] | enhancing effect | – | – | lack of effect | –
5 | COC(=O)c1ccc(NC(=O)c2ccc3ccccc3c2)cc1 [L96B, methyl 4-(naphthalene-2-amido)benzoate] | – | – | – | – | did not affect cell viability
6 | CC(=O)N1CCc2cc(NC(=O)Nc3cccc4cccnc34)ccc21 [C2, 3-(1-acetyl-2,3-dihydro-H-indol-5-yl)-1-(quinoline-8-yl)urea] | enhancing effect | – | 10.3 µM | lack of effect | –
